The test system of one series is Salmonella strain TA98. How it is done: (§1) Certain compounds of the invention were tested in a miniaturized screening version of the Ames test that requires a small amount of compound compared with the regulatory test. The Ames fluctuation assay is performed in 384-well plates using two Salmonella strains, TA98 and TA100. TA98 detects frameshifts and TA100 detects base substitutions leading to missense mutations. Whereas the original Ames test is carried out by plating bacteria onto selective agar plates, the Ames fluctuation assay is carried out in liquid culture using 384-well plates. The bacterial plates are incubated with the test compounds for 96 hours, after which bacterial growth is measured spectrophotometrically using a pH indicator that changes color in response to the acidification of the media due to bacterial growth.
(§2) Metabolic activation is achieved by using rat liver S9 fraction (0.2 mg/ml). To prevent false negatives due to bacteriocidal or bacteriostatic effects, a bacterial cytotoxicity assay is conducted in parallel with the Ames fluctuation assay. Compounds are typically tested in both bacterial strains with and without S9, at four concentrations (5, 10, 50 and 100 μM) with n=48 wells. A bacterial cytotoxicity test is conducted in parallel at 8 concentrations (with 100 μM as the highest concentration) and n=3 wells. Four reference compounds (quercetin, streptozotocin, aminoanthracene and mitomycin C) are included in all experiments.
(§3) The significance of the positive counts between the treatment (in the presence of compound) and the control (in the absence of test compound) are calculated using the one-tailed Fisher's exact test—the significance levels are reported as follows: • Weak positive, if 0.01≦p≦0.05, denoted as “+” • Strong positive, if 0.001≦p≦0.01, denoted as “++” • Very strong positive, if p<0.001, denoted as “+++” • Hyphens (−) indicate negative results

A further series deals with Salmonella strain TA100. How it is done:
as §1, §2, §3

The test system of series [1] is Salmonella strains, TA98 and TA100. Particulars: with rat liver S9 fraction.
From the text: The Ames Salmonella/microsome mutagenicity assay (Salmonella test; Ames test) is a standard, short-term bacterial reverse mutation assay specifically designed to detect a wide range of chemical substances that can produce genetic damage leading to gene mutations. The test employs several histidine dependent Salmonella strains each carrying different mutations in various genes of the histidine operon (Mortelmans and Zeiger 2000, Mutation Research 455, 29-60). […]
Certain compounds of the invention were tested in a miniaturized screening version of the Ames test that requires a small amount of compound compared with the regulatory test. […] The bacterial plates are incubated with the test compounds for 96 hours, after which bacterial growth is measured spectrophotometrically using a pH indicator that changes color in response to the acidification of the media due to bacterial growth. […]
as §3

The subject of series [2] is Salmonella typhimurium strain TA1537. The series is described as follows: Ames plate assay, TA1537. How it is done: (§4) Certain compounds of the invention were tested for their potential to induce gene mutations in bacterial strains of Salmonella typhimurium (strains TA1535, TA1537, TA98, TA100) and Escherichia coli (strain WP2uvrA(pKM101)) in a bacterial mutation assay in the absence and presence of metabolite activation (rat S9-mix). Compounds are tested at the following dose levels: 50, 150, 500, or 1500 μg/plate.
(§5) Vehicle control treatment is the vehicle used to prepare the test compound formulation diluted to the same extent as the test compound solution. Positive controls using known mutagens are included for each strain with and without rat S9 mix. Four plates are used for the vehicle control and two replicate plates per dose per strain for the treated groups and for each positive control. At the end of incubation the number of revertant colonies per plate are recorded and mean values calculated for each vehicle control, positive control and concentration of test compound used. Results are also expressed as a ratio of the mean values to the mean concurrent vehicle control value (i.e. fold increase).

Series [3] concerns Salmonella typhimurium strain TA98. The series is described as follows: Ames plate assay, TA98. How it is done: as §4, §5
The test system of series [4] is Salmonella typhimurium strain TA1535. The series is described as follows: Ames plate assay, TA1535. How it is done: as §4, §5
Series [5] has as its system Escherichia coli strain WP2uvrA(pKM101). The series can be described thus: Ames plate assay, WP2uvrA(pKM101). How it is done:
as §4, §5

Series [6] relates to Salmonella typhimurium strain TA100. The series is described as follows: Ames plate assay, TA100. How it is done: as §4, §5

The structures appear in SMILES notation. Where two headings read alike, the source gives them in different places.

For the compound `CCOC(=O)N1Cc2nc(-c3ccc(N)c(F)c3)nc(N3CCOC[C@@H]3C)c2C1` [Intermediate 19], the “Ames fluctuation assay TA98 +S9” value with Salmonella strain TA98 (TA98, +S9, 5 μM) is on record as “+++ +++ +++ +++ (Very strong positive, if p<0.001, denoted as “+++”)”; in the series with Salmonella strain TA98 (TA98, +S9, 10 μM) it was “+++ +++ +++ +++ (Very strong positive, if p<0.001, denoted as “+++”)”; in the series on Salmonella strain TA98 (TA98, +S9, 50 μM) it was “+++ +++ +++ +++ (Very strong positive, if p<0.001, denoted as “+++”)”; in the series with Salmonella strain TA98 (TA98, +S9, 100 μM) it was “+++ +++ +++ +++ (Very strong positive, if p<0.001, denoted as “+++”)”. Besides, the “Ames fluctuation assay TA100 +S9” value with Salmonella strain TA100 (TA100, +S9, 5 μM) is recorded as “−”; in the series on Salmonella strain TA100 (TA100, +S9, 10 μM), “+++ (Very strong positive, if p<0.001, denoted as “+++”)”; with Salmonella strain TA100 (TA100, +S9, 50 μM), “+++ (Very strong positive, if p<0.001, denoted as “+++”)”; in the series on Salmonella strain TA100 (TA100, +S9, 100 μM), “+++ (Very strong positive, if p<0.001, denoted as “+++”)”.

`CCOC(=O)N1Cc2nc(-c3ccc(N)cc3)nc(N3CCOC[C@@H]3C)c2C1` [Metabolite Example 137, (S)-ethyl 2-(4-aminophenyl)-4-(3-methylmorpholino)-5H-pyrrolo[3,4-d]pyrimidine-6(7H)-carboxylate]: the Ames assay result in series [1] is “Ames positive”.

For `CCOC(=O)N1Cc2nc(-c3ccc(N)cc3F)nc(N3CCOC[C@@H]3C)c2C1` [Example 138], the “Ames plate assay TA1537 +S9” value was “−” in series [2] (TA1537, +S9, 50 μg/Plate); “−” in series [2] (TA1537, +S9, 150 μg/Plate); “−” in series [2] (TA1537, +S9, 500 μg/Plate); “−” in series [2] (TA1537, +S9, 1500 μg/Plate). In addition, the “Ames plate assay TA1537 −S9” value is “−” in series [2] (TA1537, −S9, 50 μg/Plate); “−” in series [2] (TA1537, −S9, 150 μg/Plate); “−” in series [2] (TA1537, −S9, 500 μg/Plate); “−” in series [2] (TA1537, −S9, 1500 μg/Plate). In addition, the “Ames plate assay TA98 +S9” value in series [3] (TA98, +S9, 50 μg/Plate) was “−”; in series [3] (TA98, +S9, 150 μg/Plate) it was “−”; in series [3] (TA98, +S9, 500 μg/Plate), “−”; in series [3] (TA98, +S9, 1500 μg/Plate), “−”. The “Ames plate assay TA98 −S9” value in series [3] (TA98, −S9, 50 μg/Plate) is recorded as “−”; in series [3] (TA98, −S9, 150 μg/Plate), “−”; in series [3] (TA98, −S9, 500 μg/Plate), “−”; in series [3] (TA98, −S9, 1500 μg/Plate) it was “−”. For the same compound, the “Ames plate assay TA1535 +S9” value in series [4] (TA1535, +S9, 50 μg/Plate) is recorded as “−”; in series [4] (TA1535, +S9, 150 μg/Plate), “−”; in series [4] (TA1535, +S9, 500 μg/Plate), “−”; in series [4] (TA1535, +S9, 1500 μg/Plate), “−”. For the same compound, the “Ames plate assay TA1535 −S9” value in series [4] (TA1535, −S9, 50 μg/Plate) was “−”; in series [4] (TA1535, −S9, 150 μg/Plate), “−”; in series [4] (TA1535, −S9, 500 μg/Plate), “−”; in series [4] (TA1535, −S9, 1500 μg/Plate) it was “−”. Besides, the “Ames plate assay WP2uvrA (pKM101) +S9” value in series [5] (+S9, 50 μg/Plate) is “−”; in series [5] (+S9, 150 μg/Plate), “−”; in series [5] (+S9, 500 μg/Plate), “−”; in series [5] (+S9, 1500 μg/Plate), “−”. Further, the “Ames plate assay WP2uvrA (pKM101) −S9” value in series [5] (−S9, 50 μg/Plate) is reported as “−”; in series [5] (−S9, 150 μg/Plate), “−”; in series [5] (−S9, 500 μg/Plate), “−”; in series [5] (−S9, 1500 μg/Plate), “−”. The “Ames plate assay TA100 +S9” value was “−” in series [6] (TA100, +S9, 50 μg/Plate); “−” in series [6] (TA100, +S9, 150 μg/Plate); “−” in series [6] (TA100, +S9, 500 μg/Plate); “−” in series [6] (TA100, +S9, 1500 μg/Plate). The “Ames plate assay TA100 −S9” value in series [6] (TA100, −S9, 50 μg/Plate) was “−”; in series [6] (TA100, −S9, 150 μg/Plate), “−”; in series [6] (TA100, −S9, 500 μg/Plate) it was “−”; in series [6] (TA100, −S9, 1500 μg/Plate) it was “−”.

Take `CCOC(=O)N1Cc2nc(-c3ccc(N)cc3)nc(N3CCOC[C@@H]3C)c2C1` [Example 137]: the “Ames fluctuation assay TA98 +S9” value in the series on Salmonella strain TA98 (TA98, +S9, 5 μM) was “+++ +++ +++ +++ (Very strong positive, if p<0.001, denoted as “+++”)”; in the series on Salmonella strain TA98 (TA98, +S9, 10 μM) it was “+++ +++ +++ +++ (Very strong positive, if p<0.001, denoted as “+++”)”; in the series on Salmonella strain TA98 (TA98, +S9, 50 μM), “+++ +++ +++ +++ (Very strong positive, if p<0.001, denoted as “+++”)”; in the series with Salmonella strain TA98 (TA98, +S9, 100 μM), “+++ +++ +++ +++ (Very strong positive, if p<0.001, denoted as “+++”)”. The “Ames fluctuation assay TA100 +S9” value in the series on Salmonella strain TA100 (TA100, +S9, 5 μM) was “−”; in the series with Salmonella strain TA100 (TA100, +S9, 10 μM), “−”; in the series on Salmonella strain TA100 (TA100, +S9, 50 μM), “++ (Strong positive, if 0.001≦p≦0.01, denoted as “++”)”; in the series with Salmonella strain TA100 (TA100, +S9, 100 μM), “−”.

Source of the values: US8785457B2 (Cellzome Limited, priority 2009, dated 2014).
